Assay results reported in patent US8119647B2, “Fused pyrimidineone compounds as TRPV3 modulators” (Glenmark Pharmaceuticals S.A., priority 2008, dated 2012).

Target: T1, Human TRPV3 (Homo sapiens, UniProt Q8NET8)
T1 construct: expressed in transfected cells; host or cells: CHO cells (G-418 selection)
T1 sequence (Q8NET8 1-790): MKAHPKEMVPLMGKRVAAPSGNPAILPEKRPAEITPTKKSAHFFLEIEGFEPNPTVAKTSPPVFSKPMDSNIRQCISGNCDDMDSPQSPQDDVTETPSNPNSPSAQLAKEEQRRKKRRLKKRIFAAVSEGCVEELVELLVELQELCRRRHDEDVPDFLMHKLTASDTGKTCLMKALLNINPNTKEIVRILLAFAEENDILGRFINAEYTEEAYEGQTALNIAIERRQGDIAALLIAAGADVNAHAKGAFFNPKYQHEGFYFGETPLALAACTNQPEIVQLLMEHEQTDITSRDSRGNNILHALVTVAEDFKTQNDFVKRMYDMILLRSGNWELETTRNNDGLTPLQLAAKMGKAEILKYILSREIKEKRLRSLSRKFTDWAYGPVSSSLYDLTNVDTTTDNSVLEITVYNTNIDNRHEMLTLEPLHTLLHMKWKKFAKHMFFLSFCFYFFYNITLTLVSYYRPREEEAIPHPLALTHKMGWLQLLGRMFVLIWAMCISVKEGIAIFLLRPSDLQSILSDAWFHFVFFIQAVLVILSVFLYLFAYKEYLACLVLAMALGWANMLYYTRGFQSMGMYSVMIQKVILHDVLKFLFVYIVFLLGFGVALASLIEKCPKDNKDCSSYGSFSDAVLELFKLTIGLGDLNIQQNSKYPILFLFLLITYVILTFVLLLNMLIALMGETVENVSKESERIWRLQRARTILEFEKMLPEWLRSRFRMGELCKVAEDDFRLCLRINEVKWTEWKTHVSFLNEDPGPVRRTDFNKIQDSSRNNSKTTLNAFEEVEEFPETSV
Experiment: Screening for TRPV3 antagonist using the 45Calcium uptake assay (inhibition of 2-APB induced cellular uptake of radioactive calcium)
Type: cell-based
Conditions: human TRPV3 expressing CHO cells, 2-APB 500 μM; for inhibition at 1 µM / Percentage inhibition at 1.0 μM: 1.0 μM test compound; for inhibition at 1 µM: read-out: Percentage inhibition at 1.0 μM; for inhibition at 10 µM / Percentage inhibition at 10.0 μM: 10.0 μM test compound; for inhibition at 10 µM: read-out: Percentage inhibition at 10.0 μM; for IC50: class symbols
Text: The illustrative examples of the present invention are screened for TRPV3 activity according to a modified procedure described in Tóth, A., Kedei, N., Wang, Y. and Blumberg, P. M. Life Sciences (2003), 73, 487-498. The screening of the compounds can be carried out by other methods and procedures known to a person skilled in the art. Such screening methods may be found in (a) Hu, H.-Z. et al. J. Biol. Chem. (2004), 279, 35741-35747; (b) Smith, G. D. et al. Nature (2002), 418, 186-190; (c) Peier, A. M. et al. Science (2002), 296, 2046-2049.
Screening for TRPV3 Antagonist Using the ^45Calcium Uptake Assay:
The inhibition of TRPV3 receptor activation was followed as inhibition of 2-aminoethoxydiphenylborate (2-APB) induced cellular uptake of radioactive calcium. Test compounds were dissolved in dimethyl sulfoxide (DMSO) to prepare 20 mM stock solution and then diluted using plain medium with DMEM/F-12 containing 1.8 mM CaCl2 to get desired concentration. Final concentration of DMSO in the reaction was 0.5% (v/v). Human TRPV3 expressing CHO cells were grown in DMEM/F-12 medium with 10% FBS, 1% penicillin-streptomycin solution, 400 μg/ml of G-418. Cells were seeded 24 h prior to the assay in 96 well plates so as to get ˜50,000 cells per well on the day of experiment. Cells were treated with test compounds for 10 minutes followed by addition of 2-APB at a final concentration of 500 μM and 5 μCi/ml ^45Ca^+2 for 4 minutes. Cells were washed and lysed using buffer containing 1% Triton X-100, 0.1% deoxycholate and 0.1% SDS. Radioactivity in the lysate was measured in Packardt Top count after addition of liquid scintillant. Concentration response curves were plotted as a % of maximal response obtained in the absence of test antagonist. IC50 value was calculated from concentration response curve by nonlinear regression analysis using GraphPad PRISM software.
Percentage inhibition at concentrations of 1.0 μM and 10.0 μM are given in the table along with IC50 (nM) values for selected examples.

inhibition at 1 µM [%] | inhibition at 10 µM [%] | IC50 [nM] | Percentage inhibition at 1.0 μM [%] | Percentage inhibition at 10.0 μM [%] | Structure (SMILES)
59.3 | 91.7 | 500 to 1000 |  |  | COc1cccc(/C=C/c2nc3sccn3c(=O)c2-c2ccc(C#N)cc2)c1OCC1CC1 [Example 16, 4-{7-[(E)-2-[2-(Cyclopropylmethoxy)-3-methoxyphenyl]-1-ethenyl}-5-oxo-5H-[1,3]thiazolo[3,2-a]pyrimidin-6-yl}benzonitrile]
22.7 | 60.6 |  |  |  | CCOc1cccc(/C=C/c2nc3sccn3c(=O)c2-c2ccc(OC(F)(F)F)cc2)c1OCC1CC1 [Example 61, 7-{(E)-2-[2-(Cyclopropylmethoxy)-3-ethoxyphenyl}-1-ethenyl]-6-(4-trifluoromethoxy-phenyl)-5H-[1,3]thiazolo[3,2-a]pyrimidin-5-one]
72.8 | 95.3 | < 250 |  |  | CCCOc1c(/C=C/c2nc3sccn3c(=O)c2-c2ccc(OC(F)(F)F)cc2)cccc1OC [Example 54, 7-[(E)-2-(3-Methoxy-2-propoxyphenyl)-1-ethenyl]-6-[4-(trifluoromethoxy)phenyl]-5H-[1,3]thiazolo[3,2-a]pyrimidin-5-one]
61.1 | 80.8 |  |  |  | COc1cccc(/C=C/c2nc3sccn3c(=O)c2-c2ccc(OC(F)(F)F)cc2)c1OCC1CCCCC1 [Example 71, 7-[(E)-2-(2-Cyclohexylmethoxy-3-methoxyphenyl)-1-ethenyl]-6-[4-(trifluoromethoxy)phenyl]-5H-[1,3]thiazolo[3,2-a]pyrimidin-5-one]
4.6 | 31.3 |  |  |  | COc1cccc(/C=C/c2nc3sccn3c(=O)c2-c2cccc(C(F)(F)F)c2)c1OCC1CC1 [Example 40, 7-[(E)-2-(2-Cyclopropylmethoxy-3-methoxyphenyl)-1-ethenyl]-6-[3-(trifluoromethyl)phenyl]-5H-[1,3]thiazolo[3,2-a]pyrimidin-5-one]
81.9 | 89.8 | < 250 |  |  | COc1cccc(/C=C/c2nc3sccn3c(=O)c2-c2ccc(OC(F)(F)F)cc2)c1OCCC(C)C [Example 50, 7-[(E)-2-{2-Isopentyloxy-3-methoxyphenyl}-1-ethenyl]-6-[4-(trifluoromethoxy)phenyl]-5H-[1,3]thiazolo[3,2-a]pyrimidin-5-one]
12 | 69.3 |  |  |  | COc1cccc(/C=C/c2nc3sccn3c(=O)c2-c2ccc(O)cc2)c1OCC1CC1 [Example 7, 7-[(E)-2-(2-Cyclopropylmethoxy-3-methoxyphenyl)-1-ethenyl]-6-(4-hydroxyphenyl)-5H-[1,3]thiazolo[3,2-a]pyrimidin-5-one]
 |  |  | 11.2 | 0.0 | COc1cccc(/C=C/c2nc3sccn3c(=O)c2-c2ccc(C(F)(F)F)cc2)c1OCc1ccccn1 [Example 36]
 |  |  | 3.68 | 0.00 | O=c1c(-c2ccc(OC(F)(F)F)cc2)c(/C=C/c2cccc(O)c2O)nc2sccn12 [Example 59]
73 | 91.1 | < 250 |  |  | COc1cccc(/C=C/c2nc3sccn3c(=O)c2-c2ccc(C#N)cc2)c1OCC1CCC1 [Example 17, 4-{7-[(E)-2-(2-Cyclobutylmethoxy-3-methoxy)phenyl-1-ethenyl]-5-oxo-5H-[1,3]-thiazolo[3,2-a]pyrimidin-6-yl}benzonitrile]
92.8 | 95.9 | < 250 |  |  | COc1cccc(/C=C/c2nc3sccn3c(=O)c2-c2ccc(OC(F)(F)F)cc2)c1OCC1CC1 [Example 58, 7-{(E)-2-[2-(Cyclopropylmethoxy)-3-methoxyphenyl}-1-ethenyl]-6-(4-trifluoromethoxyphenyl)-5H-[1,3]thiazolo[3,2-a]pyrimidin-5-one]
4.11 | 15.2 |  |  |  | O=c1c(-c2ccc(C(F)(F)F)cc2)c(/C=C/c2cccnc2)nc2sccn12 [Example 39, 7-[(E)-2-Pyridin-3-ylvinyl]-6-[4-(trifluoromethyl)phenyl]-5H-[1,3]thiazolo[3,2-a]pyrimidin-5-one]
80 | 95.1 | < 250 |  |  | COc1cccc(/C=C/c2nc3sccn3c(=O)c2-c2ccc(OC(F)F)cc2)c1OCC1CC1 [Example 48, 7-[(E)-2-(2-Cyclopropylmethoxy-3-methoxyphenyl)-1-ethenyl]-6-(4-difluoromethoxyphenyl]-5H-[1,3]thiazolo[3,2-a]pyrimidin-5-one]
23.4 | 34.1 |  |  |  | CCCOc1cccc(/C=C/c2nc3sccn3c(=O)c2-c2ccc(OC(F)(F)F)cc2)c1OCC1CC1 [Example 66, 7-{(E)-2-[2-(Cyclopropylmethoxy)-3-propoxyphenyl}-1-ethenyl]-6-(4-trifluoromethoxy-phenyl)-5H-[1,3]thiazolo[3,2-a]pyrimidin-5-one]
89.9 | 95.9 | < 250 |  |  | CCOCCOc1c(/C=C/c2nc3sccn3c(=O)c2-c2ccc(OC(F)(F)F)cc2)cccc1OC [Example 53, 7-[(E)-2-{2-(2-Ethoxyethoxy)-3-methoxyphenyl}-1-ethenyl]-6-[4-(trifluoromethoxy)phenyl]-5H-[1,3]thiazolo[3,2-a]pyrimidin-5-one]
73.1 | 94.8 | 500 to 1000 |  |  | CCOCCOc1c(/C=C/c2nc3sccn3c(=O)c2-c2ccc(C#N)cc2)cccc1OC [Example 15, 4-{7-[(E)-2-(2-Ethoxyethoxy-3-methoxyphenyl]-1-ethenyl}-5-oxo-5H-[1,3]thiazolo[3,2-a]pyrimidin-6-yl}benzonitrile]
 |  |  | 5.84 | 10.03 | COc1cc(/C=C/c2nc3sc4ccccc4n3c(=O)c2-c2ccc(C(F)(F)F)cc2)ccc1OCCCC#N [Example 94, 2-{(E)-2-[(3-Cyanopropoxy-3-methoxy)phenyl]-1-ethenyl}-3-(4-trifluoromethyl-phenyl)-4H-benzo[4,5][1,3]thiazolo-[3,2-a]pyrimidin-4-one]

Structure (SMILES) | inhibition at 1 µM [%] | inhibition at 10 µM [%] | IC50 [nM] | Percentage inhibition at 1.0 μM [%] | Percentage inhibition at 10.0 μM [%]
CCCCOc1c(/C=C/c2nc3sccn3c(=O)c2-c2ccc(C#N)cc2)cccc1OC [Example 9, 4-{7-[(E)-2-(2-Butoxy-3-methoxyphenyl)-1-ethenyl]-5-oxo-5H-[1,3]thiazolo[3,2-a]pyrimidin-6-yl}benzonitrile] | 71.6 | 91.9 | 500 to 1000 |  | 
CCCCOc1c(/C=C/c2nc3sc4ccccc4n3c(=O)c2-c2ccc(C#N)cc2)cccc1OC [Example 87] |  |  |  | 34.44 | 60.79
COc1cccc(/C=C/c2nc3sccn3c(=O)c2-c2ccc(C(F)(F)F)cc2)c1OCC(C)C [Example 27, 7-[(E)-2-(2-Isobutoxy-3-methoxyphenyl)-1-ethenyl]-6-[4-(trifluoromethyl)phenyl]-5H-[1,3]thiazolo[3,2-a]pyrimidin-5-one] | 69.6 | 88 | < 250 |  | 
COc1cccc(/C=C/c2nc3sccn3c(=O)c2-c2ccc(C#N)cc2)c1OCC(C)C [Example 12, 4-{7-[(E)-2-(2-Isobutoxy-3-methoxyphenyl)-1-ethenyl]-5-oxo-5H-[1,3]thiazolo[3,2-a]-pyrimidin-6-yl}benzonitrile] | 74.7 | 94.8 | < 250 |  | 
